The values that follow come from patent US12180255B2, “Compositions and methods for derepressing RE1 silencing transcription factor target genes” (Alcamena Stem Cell Therapeutics, LLC, priority 2019, dated 2024).

A short description of data set [1]: Mechanical pain threshold after SNI, morphine analgesia. It is filed as in vivo. The conditions noted are these: single S.C. injection, n=4. The method, then:
FIG. 23. […] B. Analgesic effect of single S.C. injection of morphine on MT post-injury (SNI+MOR, n=4). Mean±SEM; F=4.62, *p<0.05 by one-way ANOVA before and after treatment; mean difference and 95% CI=−7.3, −14.5 to −0.135, p<0.05 by Bonferroni's Multiple Comparison test. 20 mg/Kg of MOR (n=4; F=19.03, **p<0.001 by one-way ANOVA).

A short description of data set [2]: Conditioned Place Preference after morphine in SNI mice. It counts as in vivo. To be noted: 4 doses. The source says:
FIG. 24. Conditioned Place Preference (CPP) after conditioning with saline (control) and 4 doses of morphine (MOR) in SNI mice.

The target in another data set is T1, His-CTDSP1 (Homo sapiens, UniProt Q9GZU7).
T1 construct: made in house; host or cells: E. coli 10G (Lucigen), pBAD-HisA
T1 sequence (Q9GZU7 with tags, fused parts or gaps): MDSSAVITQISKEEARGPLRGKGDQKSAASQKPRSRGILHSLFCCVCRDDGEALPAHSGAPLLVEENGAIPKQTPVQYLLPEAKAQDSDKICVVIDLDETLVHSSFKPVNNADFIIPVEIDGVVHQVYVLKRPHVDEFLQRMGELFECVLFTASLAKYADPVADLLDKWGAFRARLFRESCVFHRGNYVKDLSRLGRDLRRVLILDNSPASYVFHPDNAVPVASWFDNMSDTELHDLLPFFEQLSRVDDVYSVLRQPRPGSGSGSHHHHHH
Description: Binding affinity of RPP for CTDSP1, Monolith (NanoTemper). The conditions noted are these: His-CTDSP1 40 nM labelled with RED-tris NTA dye 20 nM. On the procedure: FIG. 2. Binding affinity of the REST phosphomimetic peptide (RPP) for CTDSP1 was measured using the Monolith (NanoTemper). […] Binding was assessed by fluorescently labelling the His tag on CTDSP1 (40 nM) with RED-tris NTA dye (20 nM) and measuring the change in fluorescents when RPP (up to […]) is bound.
Expression constructs for His-CTDSPL (Table 2; SEQ ID NO: 162) and GST-RPP (Table 4; SEQ ID NO: 164) were constructed and purified as described in Example 2. The His tag on CTDSP1 (40 nM) was labelled with RED-tris NTA dye (20 nM), with a […] dye to CTDSP1 ratio, and unbound dye was removed by gravity-flow size exclusion. Binding affinity of the linear GST-RPP (Table 4; SEQ ID NO: 165) to His-CTDSP1 (Table 2; SEQ ID NO:163) was determined using Monolith (NanoTemper), following manufacturer recommendations. Results of the binding assay are presented in FIG. 2: The RPP (Table 4; SEQ ID NO: 165) was assessed for binding to His-CTDSP1 at several concentrations ranging from low pM up to 0.5 μM.

In the next data set the test system is NBFL cells. Description: KV4.3 mRNA in NBFL cells transfected with plasmid expressing RPP. It counts as cell-based. On the procedure: FIG. 8. mRNA levels of KV4.3 in NBFL cells 48 h after CTDSP1 inhibition. Cells were transfected with a plasmid expressing RPP (SEQ ID NO: 1) with GFP (+) or a control peptide with GFP (−). 24 hours after transfection, cells were sorted based on fluorescence intensity. Error bars represent standard deviation, n=2.
Transient Transfections and Cell Culture. NBFL cells were grown as previously described^120. 0.5 M NFBL cells were seeded on a 35 mm dish, incubated at 37° C. overnight, and transfected with 2 μg of REST (SEQ. ID NO: 1)-IRES-GFP cDNA^2 using lipofectamine2000 (Life Technologies), following manufacturer recommendations. After a 48 hour incubation period, cell were sorted by fluorescence activated cell sorting (FACS),
mRNA extraction and quantification. mRNA was extracted, as described in Example 10, from GFP+ and − cells; mRNA levels of KV4.3 were determined using real-time RT-PCR^116. Gene expression was normalized using β-actin (ACTB) as an internal housekeeping control. The β-actin primers used are the same as Example 10. The KV4.3 primers were: forward: […] (SEQ ID NO: 336) and reverse: […] (SEQ ID NO: 337).

The Kd is the constant that tells how readily two partners part at equilibrium.

On to `CN1CC[C@]23c4c5ccc(O)c4O[C@H]2[C@@H](O)C=C[C@H]3[C@H]1C5` [morphine], for which, in data set [1], the “mechanical pain threshold (MT), mean difference before and after treatment” value is listed as −7.3. Further, the “Conditioned Place Preference (CPP)” value in data set [2] is listed as “induced CPP in a dose-dependent manner”.

In the data set with His-CTDSP1, “SEQ ID NO: 165: RPP-GST fusion protein, MCTEDLEPPEPPLPKENC linked to GST (Table 4)” yielded a Kd of around 0.13 nM.

Turning to “TEDLEPPEPPLPKEN [SEQ ID NO: 1, REST phosphomimetic peptide (RPP)]”, the “increase in KV4.3 mRNA” value in the data set on NBFL cells (NBFL cells transfected with RPP) is 2 fold. Moreover, in the data set with NBFL cells (NBFL, 2 μg (transfected), 48 h), the “Increase, KV4.3 mRNA” value is listed as 3x.
